In ChEMBL document CHEMBL1201862, “PubChem BioAssay data set” (2004):
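Interpolation was linear, between the two tested concentrations surrounding the appropriate level; five concentrations were tested over 48 hours in 96-well plates. Abbreviation: GI50, concentration required for 50% inhibition of growth.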 The source made the active and inactive calls. No stated cut-off is given here; in the data, active = GI50 up to about 1.1 µM and inactive = higher.

How the values were obtained:
Assay in all cases: growth of human tumour cells (NCI), 48 h
SK-MEL-28 = system: SK-MEL-28
HCT-116 = system: HCT-116
TK-10 = system: TK-10
XF498 = system: XF498
KM-20L2 = system: KM-20L2
RXF 393 = system: RXF 393
786-0 = system: 786-0
SK-MEL-5 = system: SK-MEL-5
UACC-62 = system: UACC-62
UACC-257 = system: UACC-257
IGROV-1 = system: IGROV-1
UO-31 = system: UO-31
DLD-1 = system: DLD-1
LXFL 529 = system: LXFL 529
NCI-H460 = system: NCI-H460
OVCAR-5 = system: OVCAR-5
DMS-114 = system: DMS-114
ACHN = system: ACHN
HOP-18 = system: HOP-18
SNB-19 = system: SNB-19
M14 = system: M14
COLO 205 = system: COLO 205
SNB-75 = system: SNB-75
HT-29 = system: HT-29
HL-60 = system: HL-60
SK-MEL-2 = system: SK-MEL-2
LOX IMVI = system: LOX IMVI
SN12C = system: SN12C
SF-268 = system: SF-268
HOP-92 = system: HOP-92
OVCAR-3 = system: OVCAR-3
EKVX = system: EKVX
SW-620 = system: SW-620
OVCAR-8 = system: OVCAR-8
SNB-78 = system: SNB-78
RPMI-8226 = system: RPMI-8226
HOP-62 = system: HOP-62
A549 = system: A549
HCC 2998 = system: HCC 2998
MOLT-4 = system: MOLT-4
CCRF-CEM = system: CCRF-CEM
U-251 = system: U-251
M19-MEL = system: M19-MEL
NCI-H23 = system: NCI-H23
KM12 = system: KM12
Malme-3M = system: Malme-3M
OVCAR-4 = system: OVCAR-4
SF-295 = system: SF-295
DMS-273 = system: DMS-273
SF-539 = system: SF-539
NCI-H226 = system: NCI-H226
K562 = system: K562
HCT-15 = system: HCT-15
SK-OV-3 = system: SK-OV-3
MCF7 = system: MCF7
NCI/ADR-RES = system: NCI/ADR-RES
NCI-H522 = system: NCI-H522
CAKI-1 = system: CAKI-1
A498 = system: A498

For `NC1=NN(c2ccccc2)C(=O)C1/C(=N\NC(=O)c1cc2ccccc2cc1O)C(=O)Nc1cccc(C(F)(F)F)c1` (configuration not stated), the GI50 (SK-MEL-28) was 57.7 µM (inactive), the GI50 (HCT-116) was 25.4 µM (inactive) and the GI50 (TK-10) was > 100 µM (inactive). For the same compound, the GI50 (XF498) was 64.9 µM (inactive), the GI50 (KM-20L2) was 32.6 µM (inactive) and the GI50 (RXF 393) was 55.1 µM (inactive). The GI50 (786-0) was 38.1 µM (inactive), the GI50 (SK-MEL-5) was 23.1 µM (inactive) and the GI50 (UACC-62) was 35.2 µM (inactive). For the same compound, the GI50 (UACC-257) was 26.4 µM (inactive), the GI50 (IGROV-1) was 27.8 µM (inactive) and the GI50 (UO-31) was 32.8 µM (inactive). The GI50 (DLD-1) was 36.6 µM (inactive), the GI50 (LXFL 529) was 39.3 µM (inactive) and the GI50 (NCI-H460) was 27.1 µM (inactive). The GI50 (OVCAR-5) was 26.2 µM (inactive), the GI50 (DMS-114) was 24.8 µM (inactive) and the GI50 (ACHN) was 30.1 µM (inactive). The GI50 (HOP-18) was 21.2 µM (inactive), the GI50 (SNB-19) was 75 µM (inactive) and the GI50 (M14) was 28.7 µM (inactive). The GI50 (COLO 205) was 35.7 µM (inactive), the GI50 (SNB-75) was > 100 µM (inactive) and the GI50 (HT-29) was 41 µM (inactive). For the same compound, the GI50 (HL-60) was 6.65 µM (inactive), the GI50 (SK-MEL-2) was 22.4 µM (inactive) and the GI50 (LOX IMVI) was 25.9 µM (inactive). For the same compound, the GI50 (SN12C) was 46.6 µM (inactive), the GI50 (SF-268) was 23.5 µM (inactive) and the GI50 (HOP-92) was 33.2 µM (inactive). The GI50 (OVCAR-3) was 25.7 µM (inactive), the GI50 (EKVX) was 35.6 µM (inactive) and the GI50 (SW-620) was 34.7 µM (inactive). For the same compound, the GI50 (OVCAR-8) was 24.1 µM (inactive), the GI50 (SNB-78) was 44 µM (inactive) and the GI50 (RPMI-8226) was 39.7 µM (inactive). For the same compound, the GI50 (HOP-62) was 39.4 µM (inactive), the GI50 (A549) was 37.2 µM (inactive) and the GI50 (HCC 2998) was 46.2 µM (inactive). The GI50 (MOLT-4) was 16.3 µM (inactive), the GI50 (CCRF-CEM) was 7.06 µM (inactive) and the GI50 (U-251) was 37.7 µM (inactive). For the same compound, the GI50 (M19-MEL) was 35.2 µM (inactive), the GI50 (NCI-H23) was 29.2 µM (inactive) and the GI50 (KM12) was 37.3 µM (inactive). For the same compound, the GI50 (Malme-3M) was 37 µM (inactive), the GI50 (OVCAR-4) was 42.5 µM (inactive) and the GI50 (SF-295) was 49.1 µM (inactive).

`CSC1(C)CC2C(CC1N1CCOCC1)C2(C)C` (configuration not stated) was tested, and the GI50 (SK-MEL-28) was > 100 µM (inactive), the GI50 (HCT-116) was > 100 µM (inactive) and the GI50 (TK-10) was > 100 µM (inactive). For the same compound, the GI50 (XF498) was > 100 µM (inactive), the GI50 (DMS-273) was > 100 µM (inactive) and the GI50 (786-0) was > 100 µM (inactive). The GI50 (SK-MEL-5) was > 100 µM (inactive), the GI50 (UACC-257) was > 100 µM (inactive) and the GI50 (IGROV-1) was > 100 µM (inactive). For the same compound, the GI50 (UO-31) was > 100 µM (inactive), the GI50 (DLD-1) was > 100 µM (inactive) and the GI50 (LXFL 529) was > 100 µM (inactive). The GI50 (NCI-H460) was > 100 µM (inactive), the GI50 (OVCAR-5) was > 100 µM (inactive) and the GI50 (DMS-114) was > 100 µM (inactive). For the same compound, the GI50 (ACHN) was > 100 µM (inactive), the GI50 (HOP-18) was > 100 µM (inactive) and the GI50 (M14) was > 100 µM (inactive). For the same compound, the GI50 (COLO 205) was > 100 µM (inactive), the GI50 (SNB-75) was > 100 µM (inactive) and the GI50 (HT-29) was > 100 µM (inactive). The GI50 (HL-60) was > 100 µM (inactive), the GI50 (SF-539) was > 100 µM (inactive) and the GI50 (SK-MEL-2) was > 100 µM (inactive). For the same compound, the GI50 (NCI-H226) was > 100 µM (inactive), the GI50 (SN12C) was > 100 µM (inactive) and the GI50 (SF-268) was > 100 µM (inactive). The GI50 (HOP-92) was 78.2 µM (inactive), the GI50 (OVCAR-3) was > 100 µM (inactive) and the GI50 (K562) was > 100 µM (inactive). The GI50 (OVCAR-8) was > 100 µM (inactive), the GI50 (SNB-78) was > 100 µM (inactive) and the GI50 (RPMI-8226) was > 100 µM (inactive). For the same compound, the GI50 (HCT-15) was over 100 µM, the GI50 (A549) was > 100 µM (inactive) and the GI50 (HCC 2998) was > 100 µM (inactive). The GI50 (MOLT-4) was > 100 µM (inactive), the GI50 (CCRF-CEM) was > 100 µM (inactive) and the GI50 (U-251) was > 100 µM (inactive). The GI50 (M19-MEL) was > 100 µM (inactive), the GI50 (NCI-H23) was > 100 µM (inactive) and the GI50 (KM12) was > 100 µM (inactive). For the same compound, the GI50 (SK-OV-3) was > 100 µM (inactive), the GI50 (Malme-3M) was > 100 µM (inactive) and the GI50 (OVCAR-4) was > 100 µM (inactive). The GI50 (SF-295) was > 100 µM (inactive).

With `COc1ccc(Cc2nn(C3OC(COC(C)=O)C(OC(C)=O)C(OC(C)=O)C3OC(C)=O)c(=S)n(-c3ccc(OC)cc3)c2=O)cc1` (configuration not stated) the GI50 (MCF7) was > 100 µM (inactive), the GI50 (NCI/ADR-RES) was > 100 µM (inactive) and the GI50 (SK-MEL-28) was > 100 µM (inactive). For the same compound, the GI50 (HCT-116) was > 100 µM (inactive), the GI50 (XF498) was > 100 µM (inactive) and the GI50 (KM-20L2) was > 100 µM (inactive). The GI50 (RXF 393) was > 100 µM (inactive), the GI50 (DMS-273) was > 100 µM (inactive) and the GI50 (SK-MEL-5) was > 100 µM (inactive). For the same compound, the GI50 (UACC-62) was > 100 µM (inactive), the GI50 (UACC-257) was > 100 µM (inactive) and the GI50 (IGROV-1) was > 100 µM (inactive). For the same compound, the GI50 (UO-31) was > 100 µM (inactive), the GI50 (DLD-1) was > 100 µM (inactive) and the GI50 (NCI-H460) was > 100 µM (inactive). For the same compound, the GI50 (OVCAR-5) was > 100 µM (inactive), the GI50 (HOP-18) was > 94 µM (inactive) and the GI50 (SNB-19) was > 100 µM (inactive). For the same compound, the GI50 (COLO 205) was > 100 µM (inactive), the GI50 (SNB-75) was 43.5 µM (inactive) and the GI50 (HT-29) was > 100 µM (inactive). For the same compound, the GI50 (HL-60) was > 77.8 µM (inactive), the GI50 (SF-539) was > 100 µM (inactive) and the GI50 (SK-MEL-2) was > 100 µM (inactive). The GI50 (LOX IMVI) was > 100 µM (inactive), the GI50 (NCI-H226) was > 100 µM (inactive) and the GI50 (SN12C) was > 100 µM (inactive). For the same compound, the GI50 (SF-268) was > 100 µM (inactive), the GI50 (HOP-92) was > 87.5 µM (inactive) and the GI50 (OVCAR-3) was > 100 µM (inactive). The GI50 (EKVX) was > 54.3 µM (inactive), the GI50 (SW-620) was > 100 µM (inactive) and the GI50 (K562) was > 100 µM (inactive). The GI50 (NCI-H522) was > 100 µM (inactive), the GI50 (OVCAR-8) was > 100 µM (inactive) and the GI50 (SNB-78) was > 100 µM (inactive). For the same compound, the GI50 (RPMI-8226) was > 100 µM (inactive), the GI50 (HOP-62) was > 100 µM (inactive) and the GI50 (HCT-15) was over 100 µM. The GI50 (A549) was > 100 µM (inactive), the GI50 (HCC 2998) was > 100 µM (inactive) and the GI50 (MOLT-4) was > 100 µM (inactive). For the same compound, the GI50 (CCRF-CEM) was > 100 µM (inactive), the GI50 (U-251) was > 100 µM (inactive) and the GI50 (CAKI-1) was > 100 µM (inactive). For the same compound, the GI50 (A498) was > 100 µM (inactive), the GI50 (M19-MEL) was > 100 µM (inactive) and the GI50 (NCI-H23) was > 100 µM (inactive). The GI50 (KM12) was > 100 µM (inactive), the GI50 (SK-OV-3) was > 100 µM (inactive) and the GI50 (Malme-3M) was > 100 µM (inactive). The GI50 (OVCAR-4) was > 100 µM (inactive) and the GI50 (SF-295) was > 100 µM (inactive).
